This assay relates to BDF1 mice, P815 leukemia ip, survival T/C. Kind of assay: NCI In Vivo Anticancer Drug Screen. Data for tumor model P815 Mast Cell Leukemia (Ascitic) (intraperitoneal) in B6D2F1 (BDF1) mice. The note with it: endpoint: survival time, mean or median, higher = longer survival. The method, then:
The antitumor activity of compounds was measured in mice bearing transplantable tumors. Survival or tumor size were measured and the results are expressed as the measurement made in the treated group (T) divided by the measurement made in the vehicle treated control group (C). The tumor model used in this assay is P815 Mast Cell Leukemia (Ascitic) (intraperitoneal) in B6D2F1 (BDF1) mice

[1] abbreviates: dose: 12.0 mg/kg/injection, schedule: Q01DX010 (ip), vehicle: saline.
Where [2] appears, read: dose: 3.13 mg/kg/injection, schedule: Q01DX010 (ip), vehicle: saline.
The mark [3] stands for this setting: dose: 6.25 mg/kg/injection, schedule: Q01DX010 (ip), vehicle: saline.
Setting [4] is: dose: 12.5 mg/kg/injection, schedule: Q01DX010 (ip), vehicle: saline.
[5] abbreviates: dose: 25.0 mg/kg/injection, schedule: Q01DX010 (ip), vehicle: saline.
Where [6] appears, read: dose: 62.5 mg/kg/injection, schedule: Q01DX010 (ip), vehicle: saline.
Where [7] appears, read: dose: 125.0 mg/kg/injection, schedule: Q01DX010 (ip), vehicle: saline.
Setting [8] is: dose: 250.0 mg/kg/injection, schedule: Q01DX010 (ip), vehicle: saline.
[9] abbreviates: dose: 18.0 mg/kg/injection, schedule: Q01DX010 (ip), vehicle: saline.
Setting [10] is: dose: 27.0 mg/kg/injection, schedule: Q01DX010 (ip), vehicle: saline.
Setting [11] is: dose: 31.3 mg/kg/injection, schedule: Q01DX010 (ip), vehicle: saline.
[12] abbreviates: dose: 5.0 mg/kg/injection, schedule: Q01DX010 (ip), vehicle: saline.
Where [13] appears, read: dose: 10.0 mg/kg/injection, schedule: Q01DX010 (ip), vehicle: saline.
Where [14] appears, read: dose: 20.0 mg/kg/injection, schedule: Q01DX010 (ip), vehicle: saline.
[15] abbreviates: dose: 40.0 mg/kg/injection, schedule: Q01DX010 (ip), vehicle: saline.

Molecules are shown by their SMILES. “And” between values parts separate entries of the source, which are not always exact repeats. Identical values can stand only once. Inconclusive results and toxic doses are left out.

For `CC/C(=C(/CC)c1ccc(O)cc1)c1ccc(O)cc1`, the T/C is, setting by setting: (dose: 12.5 mg/kg/injection, schedule: Q01DX010 (sc), vehicle: steriod suspending solution) 100 % of control and 104 % of control; (dose: 25.0 mg/kg/injection, schedule: Q01DX010 (sc), vehicle: steriod suspending solution) 100 % of control and 109 % of control; (dose: 50.0 mg/kg/injection, schedule: Q01DX010 (sc), vehicle: steriod suspending solution) 100 % of control and 104 % of control; (dose: 100.0 mg/kg/injection, schedule: Q01DX010 (sc), vehicle: steriod suspending solution) 100 % of control and 109 % of control.

On to `CN(C)c1ccc(/C=C\c2ccnc3ccccc23)cc1`, for which the T/C (dose: 1.5 mg/kg/injection, schedule: Q01DX010 (ip), vehicle: saline) is 90 % of control; the T/C (dose: 3.0 mg/kg/injection, schedule: Q01DX010 (ip), vehicle: saline) was 90 % of control; the T/C (dose: 6.0 mg/kg/injection, schedule: Q01DX010 (ip), vehicle: saline) was 90 % of control; the T/C under setting [1] was 90 % of control.

For the compound `C[C@@H]1C[C@H]2CC[C@H](O2)[C@H](C)C(=O)O[C@@H](C)C[C@@H]2CC[C@@H](O2)[C@@H](C)C(=O)O[C@H](C)C[C@H]2CC[C@H](O2)[C@H](C)C(=O)O[C@@H](C)C[C@@H]2CC[C@@H](O2)[C@@H](C)C(=O)O1`, the T/C was 106 % of control (dose: 1.5 mg/kg/injection, schedule: Q01DX015 (ip), vehicle: other); 98 % of control (dose: 3.0 mg/kg/injection, schedule: Q01DX015 (ip), vehicle: other); 100 % of control (dose: 6.0 mg/kg/injection, schedule: Q01DX015 (ip), vehicle: other); 100 % of control (dose: 12.0 mg/kg/injection, schedule: Q01DX015 (ip), vehicle: other).

Regarding `CCCNc1ncnc2[nH]ncc12`, the T/C is, setting by setting: under setting [2], 95 % of control and 104 % of control; under setting [3], 100 % of control and 116 % of control; under setting [4], 95 % of control and 100 % of control; under setting [5], 95 % of control.

With `O=c1cn[nH]c(=O)[nH]1`, the T/C by setting is: under setting [6], 91 % of control and 95 % of control; under setting [7], 91 % of control and 100 % of control; under setting [8], 95 % of control; (dose: 500.0 mg/kg/injection, schedule: Q01DX010 (ip), vehicle: saline) 100 % of control and 104 % of control.

Take `N=[N+]=CC(=O)OCC(N)C(=O)O` (stereo not given): the T/C was 110 % of control and 111 % of control under setting [2]; 118 % of control and 119 % of control under setting [3]; 100 % of control and 123 % of control under setting [4].

With `O=C(Nc1ccc(C2=NCCN2)cc1)c1cc(C(=O)Nc2ccc(C3=NCCN3)cc2)cc([N+](=O)[O-])c1`, the T/C by setting is: (dose: 167.0 mg/kg/injection, schedule: Q01DX010 (ip), vehicle: saline) 91 % of control; under setting [8], 95 % of control; (dose: 375.0 mg/kg/injection, schedule: Q01DX010 (ip), vehicle: saline) 91 % of control.

Take `CC[C@]1(O)C[C@H]2CN(CCc3c([nH]c4ccccc34)[C@@](C(=O)OC)(c3cc4c(cc3OC)N(C=O)[C@H]3[C@@](O)(C(=O)OC)[C@H](OC(C)=O)[C@]5(CC)C=CCN6CC[C@]43[C@@H]65)C2)C1`: the T/C by setting is: (dose: 0.09 mg/kg/injection, schedule: Q01DX015 (ip), vehicle: carboxymethylcellulose (CMC)) 185 % of control; (dose: 0.13 mg/kg/injection, schedule: Q01DX015 (ip), vehicle: carboxymethylcellulose (CMC)) 183 % of control; (dose: 0.2 mg/kg/injection, schedule: Q01DX015 (ip), vehicle: carboxymethylcellulose (CMC)) 213 % of control; (dose: 0.2 mg/kg/injection, schedule: Q01DX015 (ip), vehicle: saline) 107 % of control; (dose: 0.3 mg/kg/injection, schedule: Q01DX015 (ip), vehicle: carboxymethylcellulose (CMC)) 183 % of control; (dose: 0.3 mg/kg/injection, schedule: Q01DX015 (ip), vehicle: saline) 95 % of control. The T/C (dose: 0.45 mg/kg/injection, schedule: Q01DX015 (ip), vehicle: carboxymethylcellulose (CMC)) was 102 % of control; the T/C (dose: 0.8 mg/kg/injection, schedule: Q01DX001 (ip), vehicle: saline) is 170 % of control; the T/C (dose: 1.8 mg/kg/injection, schedule: Q01DX001 (ip), vehicle: saline) was 153 % of control; the T/C (dose: 4.3 mg/kg/injection, schedule: Q01DX001 (ip), vehicle: saline) was 113 % of control; the T/C (dose: 12.5 micrograms/kg/injection, schedule: Q01DX015 (ip), vehicle: carboxymethylcellulose (CMC)) was 116 % of control; the T/C (dose: 25.0 micrograms/kg/injection, schedule: Q01DX015 (ip), vehicle: carboxymethylcellulose (CMC)) was 120 % of control. Further, the T/C (dose: 100.0 micrograms/kg/injection, schedule: Q01DX015 (ip), vehicle: carboxymethylcellulose (CMC)) was 170 % of control and the T/C (dose: 150.0 micrograms/kg/injection, schedule: Q01DX015 (ip), vehicle: saline) is 158 % of control.

Take `O=C(Nc1ccc(C2=NCCN2)cc1)Nc1cccc(NC(=O)Nc2ccc(C3=NCCN3)cc2)c1`: the T/C (dose: 120.0 mg/kg/injection, schedule: Q01DX010 (ip), vehicle: saline) was 258 % of control and 276 % of control; the T/C (dose: 240.0 mg/kg/injection, schedule: Q01DX010 (ip), vehicle: saline) was 88 % of control and 92 % of control.

For the compound `CC1CN=C(c2ccc(NC(=O)c3cccc(C(=O)Nc4ccc(C5=NCC(C)N5)cc4)c3)cc2)N1` (stereo not given), the T/C by setting is: under setting [1], 112 % of control; under setting [9], 104 % of control; under setting [10], 112 % of control.

As to `CC(=O)Nc1ccc(/C=N/Nc2ccc([N+](=O)[O-])cn2)cc1`, the T/C runs as follows: under setting [11], 100 % of control; under setting [6], 100 % of control; under setting [7], 100 % of control; under setting [8], 88 % of control.

As for `Oc1cc(CN(CCCl)CCCl)c(O)cc1CN(CCCl)CCCl`, the T/C (dose: 0.63 mg/kg/injection, schedule: Q01DX010 (ip), vehicle: saline) is 111 % of control; the T/C (dose: 1.25 mg/kg/injection, schedule: Q01DX010 (ip), vehicle: saline) was 116 % of control and 122 % of control; the T/C (dose: 2.5 mg/kg/injection, schedule: Q01DX010 (ip), vehicle: saline) is 172 % of control; the T/C under setting [12] was 122 % of control; the T/C under setting [13] is 122 % of control.

For `O=C(Nc1ccc(C2=NCCN2)cc1)c1ccc(NC(=O)c2ccc(C3=NCCN3)cc2)cc1`, the T/C was 112 % of control under setting [9] and 116 % of control under setting [10].

With `Oc1ccccc1C(Nc1nc2ccccc2s1)c1ccc2cccnc2c1O` (stereo not given), the T/C was 90 % of control (dose: 62.5 mg/kg/injection, schedule: Q01DX015 (ip), vehicle: other); 120 % of control (dose: 125.0 mg/kg/injection, schedule: Q01DX015 (ip), vehicle: other); 98 % of control (dose: 250.0 mg/kg/injection, schedule: Q01DX015 (ip), vehicle: other).

Take `O=C1CCC(N2C(=O)c3ccccc3C2=O)C(=O)N1` (stereo not given): the T/C under setting [11] was 104 % of control, the T/C under setting [6] is 100 % of control, the T/C under setting [7] is 96 % of control and the T/C under setting [8] was 96 % of control.

Turning to `Cn1c(N)nc2nc[nH]c2c1=S`, the T/C reads like this: under setting [13], 106 % of control; under setting [14], 100 % of control and 111 % of control; under setting [15], 100 % of control; (dose: 160.0 mg/kg/injection, schedule: Q01DX010 (ip), vehicle: saline) 100 % of control.

As for `CS(=O)(=O)OCCC(=O)N1CCN(C(=O)CCOS(C)(=O)=O)CC1`, the T/C runs as follows: under setting [4], 105 % of control; under setting [5], 222 % of control; (dose: 50.0 mg/kg/injection, schedule: Q01DX010 (ip), vehicle: saline) 211 % of control and 285 % of control; (dose: 100.0 mg/kg/injection, schedule: Q01DX010 (ip), vehicle: saline) 183 % of control and 160 % of control.

On to `C[C@@H]1C[C@@H]([C@H](O)CC2CC(=O)NC(=O)C2)C(=O)[C@@H](C)C1`, for which the T/C runs as follows: under setting [12], 109 % of control and 118 % of control; under setting [13], 104 % of control and 109 % of control; under setting [14], 109 % of control and 118 % of control; under setting [15], 118 % of control.

Values taken from PubChem BioAssay AID318 (DTP/NCI, 2004).
